Measurements from patent US20200113902A1, “COMPOSITIONS AND METHODS FOR TREATING CANCERS WITH COVALENT INHIBITORS OF CYCLIN-DEPENDENT KINASE 7 (CDK7)” (Syros Pharmaceuticals, Inc., priority 2017, published 2020).

Experiments:
[1] = tested on: MCL1 protein in MDAMB453 cells; assay: Western blot of BCL2 family proteins, MDAMB453; format: cell-based, human; conditions: 50 nM or 100 nM, 24 hours
Experimental: (§1) Cytotoxic cancer cell lines HCC70 and TOV21G, and cytostatic cancer cell lines T47D and COV318 were seeded in wells of a six-well dish at a density of 1×10^6 cells/well and allowed to adhere overnight. Cells were then treated with 50 nM of Compound 1 for 16 or 24 hours, or with DMSO (0 hours) representing a negative control. Cells were harvested and placed on ice, and resuspended in RIPA lysis buffer supplemented with protease and phosphatase inhibitors. Clarified lysates prepared with 4×LSD running buffer and boiled at 95° C. for 5 minutes. Equivalent amounts of sample (10 μg total protein) were run on a 4-12% Bis-Tris gel and transferred to a PDVF membrane for Western blotting using standard Western blotting protocols. Membranes were blocked with Licor TBS blocking buffer then probed with antibodies for BCL-XL, BCL-2, MCL1, BID, and GAPDH visualized using and Odyssey imager (FIGS. 23A and 23D).
(§2) In a similar experiment, TNBC breast cancer cell lines HCC70, MDAMB468, MDAMB453 and CAL-120 were grown as described above and treated with DMSO, 50 nM Compound 1 or 100 nM Compound 1 for 24 hours. Protein samples were prepared as described above for Western blotting using antibodies specific for the indicated proteins in FIG. 29A. […]

[2] = tested on: MCL1 protein in CAL-120 cells; assay: Western blot of BCL2 family proteins, CAL-120; format: cell-based, human; conditions: 50 nM or 100 nM, 24 hours
Experimental: as §1, §2

[3] = tested on: ovarian carcinoma PDX models (OV5387, OV14702, OV14972, OV15398, OV15576, OV15696, OV15612, OV15631); assay: Ovarian carcinoma patient-derived xenografts (eight models), tumor volume; format: in vivo, mouse; conditions: 40 mg/kg or 30 mg/kg i.v. BIW; four did not respond
Experimental: (§3) Patient-derived xenograft (PDX) models from ovarian carcinoma patients (OV5387, OV14702, OV14972, OV15398, OV15576, OV15696, OV15612, OV15631) were established in NOD-SCID mice at Crown Bioscience (San Diego, USA). Cryo vials containing tumor cells were thawed and prepared for injection into mice. Cells were washed in PBS, counted, and resuspended in cold PBS at a concentration of 50,000-100,000 viable cells/100 ul. Cell suspensions were mixed with an equal volume of Cultrex ECM and kept on ice during transport to the vivarium. Cells were prepared for injections by withdrawing ECM-Cell mixture into a chilled slip-tip syringe fitted with a 26G 7/8 (0.5 mm×22 mm) needle. The filled syringes were kept on ice to avoid the solidification of ECM. Each mouse was inoculated subcutaneously in the right flank with 200 uL of the cell suspension. Tumor sizes were measured in two dimensions using a caliper, and the volumes were expressed in mm3 using the formula: V=0.5 a×b^2 where a and b are the longest and shortest diameters of the tumor, respectively. Compound 1 treatment was started when the average tumor size reached 150-200 mm^3.
(§4) Compound 1 was formulated in w/v 20% Captisol (pH 4-6) and administered by i.v. twice weekly (BIW) at a final dose of 40 mg/kg or 30 mg/kg in a 10 ml/kg volume. Tumor volumes were measured twice weekly over the course of the study. […]

[4] = tested on: OV15612 xenograft; assay: Ovarian PDX OV15612, tumor volume; format: in vivo, mouse; conditions: OV15612 (FGFR1 super enhancer, CCNE1 high); 40 or 30 mg/kg i.v. BIW
Experimental: as §3, §4

[5] = tested on: OV14702 xenograft; assay: Ovarian PDX OV14702, tumor volume; format: in vivo, mouse; conditions: OV14702 (RB1 null); 40 or 30 mg/kg i.v. BIW
Experimental: as §3, §4

[6] = tested on: OV15696 xenograft; assay: Ovarian PDX OV15696, tumor volume; format: in vivo, mouse; conditions: 40 or 30 mg/kg i.v. BIW
Experimental: as §3, §4

[7] = tested on: homologous recombination deficiency / carboplatin sensitivity genes in A2780 cells; assay: Nanostring PanCancer Pathways mRNA, A2780; format: cell-based; conditions: 50 nM, 16 hours
Experimental: Ovarian Cell lines OvCar3, TOV21G, A2780 and COV318 were plated at 500,000 cells/well in a 6-well plate the day before treatment. The next day the cells were treated with vehicle or 50 nM Compound 1 for 0, 6, or 16 hours after which cells were harvested and total RNA collected using RNeasy mini kit (Qiagen). Changes in mRNA between samples were analyzed with Nanostring™ PanCancer Pathways Panels specifically analyzing genes related to homologous recombination deficiency and carboplatin sensitivity (ie. BRCA1, BRCA2, Rad51, ATM, ATR, MSH2, MSH6). Nanostring signal intensities were first normalized to housekeeping genes across all cell lines, and then normalized to the 0 hour timepoint within a cell line.

[8] = tested on: AML xenografts; conditions: previously shown; cited from earlier work

CN(C)C/C=C/C(=O)Nc1ccc(C(=O)N[C@@]2(C)CCC[C@@H](Nc3ncc(Cl)c(-c4c[nH]c5ccccc45)n3)C2)nc1 [Compound 1, N-((1S,3R)-3-(5-chloro-4-(1H-indol-3-yl)pyrimidin-2-ylamino)-1-methylcyclohexyl)-5-((E)-4-(dimethylamino)but-2-enamido)picolinamide]
MCL1 protein level (Western blot) [1]: downregulated | MCL1 protein level (Western blot) [2]: downregulated | Response to treatment across eight ovarian PDX models (tumor growth vs historical untreated) [3]: four of the xenografts responded to treatment | Response to treatment (tumor growth) [4]: responded | Response to treatment (tumor growth) [5]: responded | Response to treatment (tumor growth) [6]: non-responders | mRNA of genes related to homologous recombination deficiency and carboplatin sensitivity, all genes except Rad51 (BRCA1, BRCA2, ATM, ATR, MSH2, MSH6) [7]: downregulated | Anti-tumor activity [8]: anti-tumor activity
